Measurements reported in patent US20100273200A1, “In-Vitro Model of Blood-Brain Barrier, In-Vitro Model of Diseased Blood-Brain Barrier, and Drug Screening Method, Analysis Method for Functions of Diseased Blood-Brain Barrier, and Analysis Method for Pathogenesis Using the Same” (priority 2005, published 2010).

System: ischemia-reperfusion BBB model
Test: Effects of radical scavenger edaravone on ischemia-reperfusion BBB model (TEER and Na—F permeability)
Assay type: cell-based, rat
Details: edaravone added at the end of the 6 h ischemia period; 3 h reperfusion; FIG. 10
Description: TEER was measured with ENDOHM (manufactured by WPI). Then, the experiment on Na—F permeability was conducted.
1/PSapper=1/PSmembrane+1/PStrans.
FIG. 4 is a graph showing variation per day of transendothelial electrical resistance value measurement results of 7 coculture models prepared by the method shown in Example 4. FIG. 5 is a graph comparing transendothelial electrical resistance value measurement results among 7 coculture models prepared by the method shown in Example 4. Transendothelial Electrical Resistance (TEER) was measured with ENDOHM (manufactured by WPI). The electrical resistance value of each BBB model was measured from 2 to 7 days after model preparation. The TEER values of E00, E0A, and E0P were calculated by subtracting therefrom the electrical resistance value of only the membrane. The TEER values of EA0 ad EAP were calculated by subtracting therefrom the electrical resistance value of the membrane on which only the astrocytes were cultured. The TEER values of EP0 ad EPA were calculated by subtracting therefrom the electrical resistance value of the membrane on which only the pericytes were cultured. […]

## CC1=NN(c2ccccc2)C(=O)C1 [edaravone]
  reduction in TEER attributed to ischemia-reperfusion (reduction in tight junction function): significantly suppressed
  rise in Na—F permeability attributed to ischemia-reperfusion (reduction in tight junction function): significantly suppressed
